Measurements published in ChEMBL document CHEMBL4346757, “Synthesis and biological evaluation of 7-methoxy-1-(3,4,5-trimethoxyphenyl)-4,5-dihydro-2H-benzo[e]indazoles as new colchicine site inhibitors” (Bioorg Med Chem Lett, 2019).

Legend:
Type in all cases: functional
[1] = system: SR; assay: Growth inhibition of human SR cells assessed as cell growth at 10 uM after 48 hrs by SRB assay relative to control; settings: read-out: Activity
[2] = system: Hs-578T; assay: Growth inhibition of human Hs 578T cells assessed as cell growth at 1 uM after 48 hrs by SRB assay relative to control; settings: read-out: Activity
[3] = system: SF-295; assay: Growth inhibition of human SF295 cells assessed as cell growth at 100 uM after 48 hrs by SRB assay relative to control; settings: SF-295, 48 h, read-out: Activity
[4] = system: HCT-15; assay: Cytotoxicity against human HCT15 cells assessed as growth inhibition after 48 hrs by SRB assay; settings: HCT-15, 48 h
[5] = system: HCT-15; assay: Growth inhibition of human HCT15 cells assessed as cell growth at 0.1 uM after 48 hrs by SRB assay relative to control; settings: HCT-15, 48 h, read-out: Activity
[6] = system: SF-268; assay: Cytotoxicity against human SF268 cells assessed as growth inhibition after 48 hrs by SRB assay; settings: SF-268, 48 h
[7] = system: MDA-MB-468; assay: Growth inhibition of human MDA-MB-468 cells assessed as cell growth at 0.01 uM after 48 hrs by SRB assay relative to control; settings: MDA-MB-468, 48 h, read-out: Activity
[8] = system: PC-3; assay: Growth inhibition of human PC3 cells assessed as cell growth at 10 uM after 48 hrs by SRB assay relative to control; settings: PC-3, 48 h, read-out: Activity
[9] = system: MDA-MB-468; assay: Growth inhibition of human MDA-MB-468 cells assessed as cell growth at 0.1 uM after 48 hrs by SRB assay relative to control; settings: MDA-MB-468, 48 h, read-out: Activity
[10] = system: KM12; assay: Growth inhibition of human KM12 cells assessed as cell growth at 100 uM after 48 hrs by SRB assay relative to control; settings: KM12, 48 h, read-out: Activity
[11] = system: MDA-MB-231; assay: Growth inhibition of human MDA-MB-231/ATCC cells assessed as cell growth at 0.1 uM after 48 hrs by SRB assay relative to control; settings: MDA-MB-231, 48 h, read-out: Activity
[12] = system: SNB-75; assay: Growth inhibition of human SNB75 cells assessed as cell growth at 0.1 uM after 48 hrs by SRB assay relative to control; settings: SNB-75, 48 h, read-out: Activity
[13] = system: NCI-H460; assay: Growth inhibition of human NCI-H460 cells assessed as cell growth at 0.1 uM after 48 hrs by SRB assay relative to control; settings: NCI-H460, 48 h, read-out: Activity
[14] = system: UACC-257; assay: Growth inhibition of human UACC257 cells assessed as cell growth at 0.1 uM after 48 hrs by SRB assay relative to control; settings: UACC-257, 48 h, read-out: Activity
[15] = system: UACC-62; assay: Growth inhibition of human UACC62 cells assessed as cell growth at 100 uM after 48 hrs by SRB assay relative to control; settings: UACC-62, 48 h, read-out: Activity
[16] = system: ACHN; assay: Cytotoxicity against human ACHN cells assessed as growth inhibition after 48 hrs by SRB assay
[17] = system: SNB-75; assay: Cytotoxicity against human SNB75 cells assessed as growth inhibition after 48 hrs by SRB assay; settings: SNB-75, 48 h
[18] = system: RXF 393; assay: Growth inhibition of human RXF393 cells assessed as cell growth at 10 uM after 48 hrs by SRB assay relative to control; settings: RXF 393, 48 h, read-out: Activity
[19] = system: MCF7; assay: Growth inhibition of human MCF7 cells assessed as cell growth at 100 uM after 48 hrs by SRB assay relative to control; settings: MCF7, 48 h, read-out: Activity
[20] = system: OVCAR-3; assay: Growth inhibition of human OVCAR3 cells assessed as cell growth at 0.1 uM after 48 hrs by SRB assay relative to control; settings: OVCAR-3, 48 h, read-out: Activity
[21] = system: A549; assay: Growth inhibition of human A549/ATCC cells assessed as cell growth at 1 uM after 48 hrs by SRB assay relative to control; settings: A549, 48 h, read-out: Activity
[22] = system: SK-MEL-28; assay: Growth inhibition of human SK-MEL-28 cells assessed as cell growth at 0.1 uM after 48 hrs by SRB assay relative to control; settings: SK-MEL-28, 48 h, read-out: Activity
[23] = system: EKVX; assay: Growth inhibition of human EKVX cells assessed as cell growth at 0.01 uM after 48 hrs by SRB assay relative to control; settings: read-out: Activity
[24] = system: NCI-H322M; assay: Cytotoxicity against human NCI-H322M cells assessed as growth inhibition after 48 hrs by SRB assay
[25] = system: EKVX; assay: Growth inhibition of human EKVX cells assessed as cell growth at 10 uM after 48 hrs by SRB assay relative to control; settings: read-out: Activity
[26] = system: OVCAR-4; assay: Growth inhibition of human OVCAR4 cells assessed as cell growth at 0.01 uM after 48 hrs by SRB assay relative to control; settings: OVCAR-4, 48 h, read-out: Activity
[27] = system: SK-MEL-2; assay: Growth inhibition of human SK-MEL-2 cells assessed as cell growth at 10 uM after 48 hrs by SRB assay relative to control; settings: SK-MEL-2, 48 h, read-out: Activity
[28] = system: HCC 2998; assay: Cytotoxicity against human HCC2998 cells assessed as growth inhibition after 48 hrs by SRB assay; settings: HCC 2998, 48 h
[29] = system: OVCAR-5; assay: Growth inhibition of human OVCAR5 cells assessed as cell growth at 0.1 uM after 48 hrs by SRB assay relative to control; settings: OVCAR-5, 48 h, read-out: Activity
[30] = system: SNB-75; assay: Growth inhibition of human SNB75 cells assessed as cell growth at 1 uM after 48 hrs by SRB assay relative to control; settings: SNB-75, 48 h, read-out: Activity
[31] = read-out: LC50 (the source's name)
[32] = read-out: pLC50 (the source's name) (converted)

Work on `COc1ccc2c(c1)CCc1n[nH]c(-c3cc(OC)c(OC)c(OC)c3)c1-2` yielded a growth at 10 µM [1] of 9%, a growth at 1 µM [2] of 18% and a growth at 100 µM [3] of -61%. The GI50 ([4]; read-out: GI50) was < 10 nM, the CC50 [4, 31] was > 100 µM and the TGI ([4]; read-out: TGI) was 11.8 µM. For the same compound, the GI50 ([4]; read-out: pGI50 (converted)) was < 10 nM, the CC50 [4, 32] was > 100 µM and the TGI ([4]; read-out: pTGI (converted)) was 11.7 µM. For the same compound, the growth at 0.1 µM [5] was 4%, the GI50 ([6]; read-out: GI50) was < 10 nM and the CC50 [6, 31] was > 100 µM. For the same compound, the TGI ([6]; read-out: TGI) was 26.8 µM, the GI50 ([6]; read-out: pGI50 (converted)) was < 10 nM and the CC50 [6, 32] was > 100 µM. It also gave a TGI ([6]; read-out: pTGI (converted)) of 26.9 µM, a growth at 0.01 µM [7] of -7% and a growth at 10 µM [8] of 14%. The growth at 0.1 µM [9] was -2%, the growth at 100 µM [10] was -78% and the growth at 0.1 µM [11] was 29%. For the same compound, the growth at 0.1 µM [12] was 31%, the growth at 0.1 µM [13] was 2% and the growth at 0.1 µM [14] was 51%. For the same compound, the growth at 100 µM [15] was -76%, the GI50 ([16]; read-out: GI50) was < 10 nM and the LC50 ([16]; read-out: LC50) was > 100 µM. The TGI ([16]; read-out: TGI) was 21.7 µM, the GI50 ([16]; read-out: pGI50 (converted)) was < 10 nM and the LC50 ([16]; read-out: pLC50 (converted)) was > 100 µM. The TGI ([16]; read-out: pTGI (converted)) was 21.9 µM, the GI50 ([17]; read-out: GI50) was < 10 nM and the CC50 [17, 31] was > 100 µM. For the same compound, the TGI ([17]; read-out: TGI) was 26.1 µM, the GI50 ([17]; read-out: pGI50 (converted)) was < 10 nM and the CC50 [17, 32] was > 100 µM. The TGI ([17]; read-out: pTGI (converted)) was 26.3 µM, the growth at 10 µM [18] was -6% and the growth at 100 µM [19] was -38%. The growth at 0.1 µM [20] was 12%, the growth at 1 µM [21] was 11% and the growth at 0.1 µM [22] was 60%. For the same compound, the growth at 0.01 µM [23] was 48%, the GI50 ([24]; read-out: GI50) was < 10 nM and the CC50 [24, 31] was > 100 µM. The TGI ([24]; read-out: TGI) was 39.5 µM, the GI50 ([24]; read-out: pGI50 (converted)) was < 10 nM and the CC50 [24, 32] was > 100 µM. The TGI ([24]; read-out: pTGI (converted)) was 39.8 µM, the growth at 10 µM [25] was 37% and the growth at 0.01 µM [26] was 41%. The growth at 10 µM [27] was 38%, the GI50 ([28]; read-out: GI50) was < 10 nM and the CC50 [28, 31] was 44.3 µM. For the same compound, the TGI ([28]; read-out: TGI) was 11.4 µM, the GI50 ([28]; read-out: pGI50 (converted)) was < 10 nM and the CC50 [28, 32] was 44.7 µM. For the same compound, the TGI ([28]; read-out: pTGI (converted)) was 11.5 µM, the growth at 0.1 µM [29] was 54% and the growth at 1 µM [30] was 39%.
